Key:
[1] = in vitro; settings: human
[2] = system: Huh7 cells
[3] = system: Ebola virus; settings: in vivo; cited from earlier work
[4] = human, in vivo; cited from earlier work
[5] = system: EBOV minigenome; assay type: cell-based, Ebola virus

For `CCN(CC)Cc1cc(Nc2ccnc3cc(Cl)ccc23)ccc1O` [Amodiaquine, amodiaquine], the CC50 [1] is listed as 79 µM, the Selectivity index [2] is listed as 37 and the case mortality [3] is listed as 50%.
For `CCNCc1cc(Nc2ccnc3cc(Cl)ccc23)ccc1O` [desethyl-amodiaquine], the half-life [4] is given as 220 to 432 h.
With `COc1c(C)c2c(c(O)c1C/C=C(\C)CCC(=O)O)C(=O)OC2` [mycophenolic acid] the “activity of EBOV minigenome (firefly luciferase normalized to renilla)” value [5] was “effectively blocked the signal from the minigenome”.
